Where a name gives a salt, the structure may show the parent alone.
test system: T1, primary mouse cortical neurons; assay: cells; parameters: Protection from NMDA-induced (30 uM, 10 min) neuronal death; Hoechst nuclear morphology by automated microscopy; details: Cortical neurone, 20 h, read-out: % inhibition, inhibition of NMDA-induced cell death (protection score), 30 min pre-treatment
T1 construct: primary cortical neurons, DIV 10
Protocol: On DIV 10, compounds were applied to the cells reaching an end concentration of 10 μM. Cells were incubated for 30 min at 37 °C, 5% CO2 before adding NMDA (30 μM). Cells were incubated for another 10 min in the incubator, then washed twice with defined minimal medium containing 10 μM of the respective compound and incubated for an additional 20 h before readout. Untreated (no NMDA) and NMDA-only stimulated wells were treated with 0.1% DMSO. […] After 15 min of incubation at room temperature, cells were washed twice with phosphate buffered saline. […] Dead neurons were identified by amorphous or shrunken nuclei using CellProfiler and CellProfiler Analyst software. For all cell death analyses the experimental unit (N) is defined as an independent experiment using an independent neuronal preparation. For each independent experiment, data from 3 replicate wells (i.e., from 36 images), representing an average of 3000 cells was analyzed per condition. The survival rate S was calculated by dividing the number of living cells by the total number of cells. The survival rate was then used to calculate the protection score according to Scompound−Svehicle/Suntreated−Svehicle×100=%protection , where ‘compound’ refers to compound + NMDA treatment, ‘vehicle’ refers to vehicle + NMDA treatment, and ‘untreated’ refers to DMSO control. […] As a proof of principle, we next used our assay to screen two commercially available drug libraries. In these screens, primary cortical cells were incubated with test compounds at 10 μM concentration for 30 min before addition of 30 μM NMDA. After 10 min NMDA treatment, cells were washed with fresh medium and kept in the presence of test compounds for 20 h until assessment of cell viability. […] This library covers structurally diverse drugs from several fields such as oncology, cardiology, immunology, and neurology/psychiatry.

SMILES	inhibition at 10 µM
CN1CCN(c2c(F)cc3c(=O)c(C(=O)O)cn(CCF)c3c2F)CC1 [Fleroxacin (Quinodis)]	-8.01%
Clc1ccc(COC(Cn2ccnc2)c2ccc(Cl)cc2Cl)cc1 (stereo not shown) [Econazole nitrate (Spectazole)]	-2.25%
Cc1cc2c(C(C)C)c(O)c(O)c(C=O)c2c(O)c1-c1c(C)cc2c(C(C)C)c(O)c(O)c(C=O)c2c1O [Gossypol]	-2.2%
Clc1ccccc1C(c1ccccc1)(c1ccccc1)n1ccnc1 [Clotrimazole (Canesten)]	-1.47%
CC[C@H](CC[C@@H](C)[C@H]1CC[C@H]2[C@@H]3CC=C4C[C@@H](O)CC[C@]4(C)[C@H]3CC[C@]12C)C(C)C [β-Sitosterol]	-0.368%
COc1cc([C@H]2Oc3ccc([C@H]4Oc5cc(O)cc(O)c5C(=O)[C@@H]4O)cc3O[C@@H]2CO)ccc1O [Silymarin (Silybin B)]	10%
O=C(c1ccccc1)c1ccc2n1CCC2C(=O)O (stereo not shown) [Ketorolac (Toradol)]	37.4%
CN/C(=C\[N+](=O)[O-])NCCSCc1ccc(CN(C)C)o1 [Ranitidine (Zantac)]	1.37%
CNC(=C[N+](=O)[O-])NCCSCc1csc(CN(C)C)n1 [Nizatidine]	-2.67%
C[C@H]1[C@H](C)CC[C@]2(C(=O)O)CC[C@]3(C)C(=CC[C@@H]4[C@@]5(C)CC[C@H](O)C(C)(C)[C@@H]5CC[C@]43C)[C@H]12 [Ursolic acid (Malol)]	6.94%
Cn1cnc2c1c(=O)[nH]c(=O)n2C [Theobromine (3,7-Dimethylxanthine)]	0.993%
O=C(N[C@H](CO)[C@H](O)c1ccc([N+](=O)[O-])cc1)C(Cl)Cl [Chloramphenicol (Chloromycetin)]	0.272%
CCCCCOC(=O)Nc1nc(=O)n([C@@H]2O[C@H](C)[C@@H](O)[C@H]2O)cc1F [Capecitabine (Xeloda)]	3.74%
COc1ccc(-c2cc(=O)c3c(OC)c(OC)c(OC)c(OC)c3o2)cc1 [Tangeretin (Tangeritin)]	-0.746%
CC1(C)O[C@@H]2[C@@H](CO[C@@]3(COS(N)(=O)=O)OC(C)(C)O[C@@H]23)O1 [Topiramate]	11.4%
CC(C)NCC(O)c1ccc(NS(C)(=O)=O)cc1 (stereo not shown) [Sotalol (Betapace)]	-6.66%
C[C@]12C=CC(=O)C=C1CC[C@@H]1[C@@H]2[C@@H](O)C[C@@]2(C)[C@H]1CC[C@]2(O)C(=O)CO [Prednisolone (Hydroretrocortine)]	4.33%
O=c1c(O)c(-c2cc(O)c(O)c(O)c2)oc2cc(O)cc(O)c12 [Myricetin (Cannabiscetin)]	-1.08%
COc1c(C)c2c(c(O)c1C/C=C(\C)CCC(=O)OCCN1CCOCC1)C(=O)OC2 [Mycophenolate mofetil (CellCept)]	4.41%
O=C1N=C(O)NC1(c1ccccc1)c1ccccc1 [Phenytoin sodium (Dilantin)]	3.12%
CC1(C)CCC[C@]2(C)[C@H]3CC(=O)O[C@]3(C)CC[C@@H]12 [Sclareolide (Norambreinolide)]	28.8%
CC1(C)O[C@H]2CC(=O)OC[C@]23[C@H]2CC[C@@]4(C)[C@H](c5ccoc5)OC(=O)[C@H]5O[C@]54[C@]2(C)C(=O)C[C@@H]13 [Limonin]	-3.17%
NC[C@@H]1O[C@H](O[C@H]2[C@@H](O)[C@H](O[C@@H]3[C@@H](O)[C@H](N)C[C@H](N)[C@H]3O[C@H]3O[C@H](CN)[C@@H](O)[C@H](O)[C@H]3N)O[C@@H]2CO)[C@H](N)[C@@H](O)[C@@H]1O [Neomycin sulfate]	-1.47%

SMILES	inhibition at 10 µM
c1cc2c(cc1[C@H]1OC[C@H]3[C@@H]1CO[C@@H]3c1ccc3c(c1)OCO3)OCO2 [Sesamin (Fagarol)]	15.7%
Cc1ccccc1N1C(=O)c2cc(S(N)(=O)=O)c(Cl)cc2NC1C (stereo not shown) [Metolazone (Zaroxolyn)]	27.9%
CO[C@H]1O[C@@H]2O[C@@]3(C)CC[C@H]4[C@H](C)CC[C@@H]([C@H]1C)[C@@]24OO3 [Artemether (SM-224)]	1.03%
C[C@@H]1O[C@@H](O[C@H]2[C@H](Oc3cc(O)c(C(=O)CCc4ccc(O)cc4)c(O)c3)O[C@H](CO)[C@@H](O)[C@@H]2O)[C@H](O)[C@H](O)[C@H]1O [Naringin Dihydrochalcone (Naringin DC)]	7.97%
NS(=O)(=O)c1cc2c(cc1Cl)NCNS2(=O)=O [Hydrochlorothiazide]	8.57%
COC(=O)[C@@H]1[C@H]2C[C@H]3c4[nH]c5ccccc5c4CCN3C[C@@H]2CC[C@@H]1O [Yohimbine hydrochloride (Antagonil)]	7.7%
C[C@@H]1CC[C@@]2(OC1)O[C@H]1C[C@H]3[C@@H]4CC=C5C[C@@H](O[C@@H]6O[C@H](CO)[C@@H](O[C@@H]7O[C@@H](C)[C@H](O)[C@@H](O)[C@H]7O)[C@H](O)[C@H]6O[C@@H]6O[C@@H](C)[C@H](O)[C@@H](O)[C@H]6O)CC[C@]5(C)[C@H]4CC[C@]3(C)[C@H]1[C@@H]2C [Dioscin (Collettiside III)]	32.2%
O=C(O)C(O)Cc1ccc(O)c(O)c1 (stereo not shown) [Sodium Danshensu]	6.44%
COc1ccccc1OCC(O)CO (stereo not shown) [Guaifenesin (Guaiphenesin)]	13.1%
CN(C)C(=O)Oc1cccc([N+](C)(C)C)c1 [Neostigmine bromide (Prostigmin)]	-0.504%
O=C1c2c(O)cc(O)cc2O[C@H](c2cc(O)c(O)c(O)c2)[C@H]1O [Dihydromyricetin (Ampeloptin)]	21.4%
C[C@@H]1C[C@H]2[C@@H]3CCC4=CC(=O)C=C[C@]4(C)[C@@]3(F)[C@@H](O)C[C@]2(C)[C@@]1(O)C(=O)CO [Dexamethasone]	-9.25%
C[N+](C)(C)C[C@H](O)CC(=O)[O-] [L-carnitine (Levocarnitine)]	3.2%
COc1cc2c(cc1Cc1cccc(Cl)c1F)c(=O)c(C(=O)O)cn2[C@H](CO)C(C)C [Elvitegravir (GS-9137)]	89.3%
CCC1=C(C)CN(C(=O)NCCc2ccc(S(=O)(=O)NC(=O)N[C@H]3CC[C@H](C)CC3)cc2)C1=O [Glimepiride]	-11.4%
Cc1noc(NS(=O)(=O)c2ccc(N)cc2)c1C [Sulfisoxazole]	-0.221%
CC(C)Oc1ccc2c(=O)c(-c3ccccc3)coc2c1 [Ipriflavone]	-1.69%
O=c1cc(-c2ccc(O)c(O)c2)oc2cc(O)cc(O)c12 [Luteolin]	-2.28%
COc1cc2c(cc1OC)C(=O)C(CC1CCN(Cc3ccccc3)CC1)C2 (stereo not shown) [Donepezil HCl (Aricept)]	-8.98%
Nc1nc(Cl)nc2c1ncn2[C@@H]1O[C@H](CO)[C@@H](O)[C@@H]1F [Clofarabine]	-10.2%
COc1cc([C@@H]2c3cc4c(cc3[C@@H](O[C@@H]3O[C@@H]5CO[C@@H](c6cccs6)O[C@H]5[C@H](O)[C@H]3O)[C@H]3COC(=O)[C@H]23)OCO4)cc(OC)c1O [Teniposide (Vumon)]	-0.429%
CC[C@@H]([C@H](C)O)n1ncn(-c2ccc(N3CCN(c4ccc(OC[C@@H]5CO[C@@](Cn6cncn6)(c6ccc(F)cc6F)C5)cc4)CC3)cc2)c1=O [Posaconazole]	-12.5%
O=c1[nH]c2ccccc2n1CCCN1CCC(n2c(=O)[nH]c3cc(Cl)ccc32)CC1 [Domperidone (Motilium)]	-9.12%
